Results published in patent US20250354979A1, “DRUG EVALUATION METHOD, REAGENT, AND KIT” (FUJIFILM Corporation, priority 2023, published 2025).

Columns and labels:
[1] = tested on: human iPS cell-derived myocardial cells; assay: Heart rate of myocardial cells by MEA, serum-free culture medium with isoproterenol and carbachol added; format: cell-based; conditions: serum-free culture medium with 1 μmol/L isoproterenol and 3 μmol/L carbachol; cumulative drug concentrations, 20 minutes after addition; vs medium control
Protocol: (§1) Example 4: Method and results of evaluating increase in heart rate by muscarinic receptor inhibitor (atropine) using serum-free culture medium to which adrenergic receptor agonist (isoproterenol) and muscarinic receptor agonist (carbachol) are added Human iPS cell-derived myocardial cells (iCell myocardial cells 2.0, manufactured by FUJIFILM Cellular Dynamics, Inc.) in a frozen state were thawed, suspended in a thawing culture medium (iCell myocardial cell thawing culture medium, manufactured by FUJIFILM Cellular Dynamics, Inc.), and then seeded at a cell density of 50,000 cells per well on a MEA plate (Cyto View MEA 48, manufactured by Axion BioSystems, Inc.). The seeding density of myocardial cells in the vicinity of the electrode was 2,725 cells/mm^2. After the plate was allowed to stand in a CO2 incubator for several hours, a maintenance culture medium (iCell myocardial cell maintenance culture medium, manufactured by FUJIFILM Cellular Dynamics, Inc.) containing serum was added, and the myocardial cells were cultured in the CO2 incubator for about one week. The culture medium was exchanged with a serum-free culture medium (a myocardial cell serum-free assay culture medium, manufactured by FUJIFILM Cellular Dynamics, Inc.) on the day before the measurement.
(§2) On the day of measurement, the MEA plate on which human iPS cell-derived myocardial cells were cultured was placed in an MEA system (Maestro Pro, manufactured by Axion BioSystems, Inc.), 1 μmol/L of isoproterenol (manufactured by Tokyo Chemical Industry Co., Ltd.) and 3 μmol/L of carbachol (manufactured by Tokyo Chemical Industry Co., Ltd.) were added to the culture medium, and then the extracellular potential was measured after 20 minutes from the addition (medium control, atropine concentration: 0 μmol/L). Subsequently, 0.01 μmol/L of atropine (manufactured by Tokyo Chemical Industry Co., Ltd.) was added to the MEA plate, and then the extracellular potential was measured after 20 minutes from the addition. Similarly, atropine was added to give concentrations of 0.1 μmol/L and 1 μmol/L, and then the extracellular potential was measured at each concentration.
From the measurement results of the extracellular potential, the interval between sharp peaks indicating depolarization of human iPS cell-derived myocardial cells was taken as the beating time (sec), and the heart rate (/min)=60/beating time (sec) was calculated. The addition of atropine was confirmed to result in an increase in heart rate of up to 51% (FIG. 7).
In the same manner as in Example 4, evaluation was carried out using an MEA plate on which human iPS cell-derived myocardial cells were cultured. Specifically, the same operations as in Example 4 were carried out except that atropine added in Example 4 was changed to tiotropium (manufactured by Tokyo Chemical Industry Co., Ltd.) and the concentration of tiotropium added was 1 pmol/L, 10 pmol/L, 100 pmol/L, and 1,000 pmol/L.
In the same manner as in Example 4, evaluation was carried out using an MEA plate on which human iPS cell-derived myocardial cells were cultured. Specifically, the same operations as in Example 4 were carried out except that atropine added in Example 4 was changed to glycopyrronium (manufactured by Tokyo Chemical Industry Co., Ltd.) and the concentration of glycopyrronium added was 0.01 nmol/L, 0.1 nmol/L, 1 nmol/L, and 10 nmol/L.
In the same manner as in Example 4, evaluation was carried out using an MEA plate on which human iPS cell-derived myocardial cells were cultured. Specifically, the same operations as in Example 4 were carried out except that the atropine added in Example 4 was changed to propranolol (manufactured by FUJIFILM Wako Pure Chemical Corporation) and the concentration of propranolol added was 0.1 nmol/L, 1 nmol/L, 10 nmol/L, and 100 nmol/L.
In the same manner as in Example 4, evaluation was carried out using an MEA plate on which human iPS cell-derived myocardial cells were cultured. […]

[2] = tested on: human iPS cell-derived myocardial cells; assay: Heart rate of myocardial cells by MEA, serum-free culture medium with isoproterenol added; format: cell-based; conditions: serum-free culture medium with 1 μmol/L isoproterenol; cumulative drug concentrations, 20 minutes after addition; vs medium control
Protocol: as §1, with “1:” for “4:”, “decrease” for “increase”, “agonist (carbachol)” for “inhibitor (atropine)”, “is” for “and muscarinic receptor agonist (carbachol) are”, “2,671” for “2,725”, “The culture medium was exchanged with a serum-free culture medium (a myocardial cell serum-free assay culture medium, manufactured by FUJIFILM Cellular Dynamics, Inc.) on the day before the measurement.” left out
as §2, with “Ltd.) was” for “Ltd.) and 3 μmol/L of carbachol (manufactured by Tokyo Chemical Industry Co., Ltd.) were”, “control, carbachol” for “control, atropine”, “of carbachol” for “of atropine”, “Similarly, carbachol” for “Similarly, atropine”, “0.1 μmol/L, 1 μmol/L,” for “0.1 μmol/L”, “and 10” for “and 1”
From the measurement results of the extracellular potential, the interval between sharp peaks indicating depolarization of human iPS cell-derived myocardial cells was taken as the beating time (sec), and the heart rate (/min)=60/ beating time (sec) was calculated. […]

SMILES	increase in heart rate [1]	decrease in heart rate [2]
CN1[C@@H]2CC[C@H]1C[C@@H](OC(=O)C(CO)c1ccccc1)C2 (some centres unmarked) [atropine]	up to 51%	–
C[N+](C)(C)CCOC(N)=O [carbachol]	–	up to 34%
